Measured values from the supplement of paper PMC10307832.

What was measured:
Experiment in all cases: relative viability (nuclei count vs DMSO), 5 days (fraction); higher = more cells survive
[1] = compound: CC(O)(CS(=O)(=O)c1ccc(F)cc1)C(=O)Nc1ccc(C#N)c(C(F)(F)F)c1 [Bicalutamide] + CS(=O)(=O)N1CCN(Cc2cc3nc(-c4cccc5[nH]ncc45)nc(N4CCOCC4)c3s2)CC1 [Pictilisib] (partner 1 µM)
Procedure, shortened: (§1)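 Cells from lung cancer lines were seeded into 1536-well plates and, one day later, dosed by pin tool. Treatments were either a single drug or a fixed dose of an anchor drug with five library-drug doses (not always all listed) in √10 steps. After 5 days, nuclei were stained in a one-step fixation (final 0.05% Triton X-100, 1% formaldehyde, 1 ug/ml Hoechst) and counted on 4× images, and relative viability is the treated-to-vehicle nuclei ratio, as the median of duplicate plates.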

[2] = compound: CC(O)(CS(=O)(=O)c1ccc(F)cc1)C(=O)Nc1ccc(C#N)c(C(F)(F)F)c1 [Bicalutamide] + COc1cc2c(Oc3ccc(NC(=O)C4(C(=O)Nc5ccc(F)cc5)CC4)cc3F)ccnc2cc1OCCCN1CCOCC1 [Foretinib] (partner 0.25 µM)
Procedure, shortened: as §1

[3] = compound: CC(O)(CS(=O)(=O)c1ccc(F)cc1)C(=O)Nc1ccc(C#N)c(C(F)(F)F)c1 [Bicalutamide]
Procedure, shortened: (§2)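 On vehicle-anchored 1536-well plates, lung cancer cell lines held overnight at 37 °C were pinned with five library-drug doses (not always all listed) spaced by √10. With no medium change over 5 days, they were then fixed, permeabilised and Hoechst-stained in one step and imaged at 4×. MetaXpress counted nuclei, and viability is the median across plates of treated-well over vehicle-well nuclei. Acceptance needed control CV below 25% and at least one doubling.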

[4] = compound: C(C(=O)C(=O)O)Br [Bromopyruvate]
Procedure, shortened: as §2

Cell Line UMC-11 has a relative viability ([1]; first compound 0.08 µM) of 0.742, a relative viability ([1]; first compound 0.253 µM) of 0.621 and a relative viability ([1]; first compound 0.8 µM) of 1.14. For the same cell line, the relative viability ([1]; first compound 2.53 µM) was 0.768, the relative viability ([2]; first compound 0.08 µM) was 1.11 and the relative viability ([2]; first compound 0.253 µM) was 0.966. It also gave a relative viability ([2]; first compound 0.8 µM) of 1.08, a relative viability ([2]; first compound 2.53 µM) of 1.05 and a relative viability ([3]; 0.08 µM) of 0.958. The relative viability ([3]; 0.253 µM) was 0.909, the relative viability ([3]; 0.8 µM) was 1.17 and the relative viability ([3]; 2.53 µM) was 0.938. For the same cell line, the relative viability ([4]; 1 µM) was 1.03, the relative viability ([4]; 3.162 µM) was 0.989 and the relative viability ([4]; 10 µM) was 0.908. For the same cell line, the relative viability ([4]; 31.62 µM) was 0.958 and the relative viability ([4]; 100 µM) was 1.
